Measurements published in PMC9959676 (Molecules, 2023).
Where two headings read alike, the source gives them in different places.

How the values were obtained:
[1] = DPPH free radical scavenging assay; details: 1.0 mL sample 0.5 mg/mL + 2 mL DPPH 0.2 mg/mL, 30 min, 517 nm
Protocol: The DPPH assay was carried out to estimate the antioxidant potential among all the compounds [29]. Then, 2 mL (0.2 mg/mL in methyl alcohol) of DPPH was mixed with 1.0 mL (0.5 mg/mL in methyl alcohol) of the sample solution in a test tube. All the reaction tubes were covered with aluminum foil and kept aside for 30 min to complete the reaction. The activity was carried out in a dark room. […] A UV-visible spectrophotometer was employed to observe a reduction in the concentration of free radicals at 517 nm. The absorbance of the control (1.0 mL methanol + 2 mL DPPH solution) was also measured. All samples were evaluated in a triplicate manner, and the mean results were recorded. The standard antioxidant (ascorbic acid) was evaluated and set as a reference/standard. The percentage of inhibition (%) was calculated using the following formula in terms of scavenging activity(S):S (%) = [(Ab − Aa)/Ab] × 100(1) where Ab = Absorbance of control; and Aa = Absorbance of the test sample

thoracic aorta segments = assay: Inhibition of phenylephrine-induced contraction on isolated aorta rings; set-up: species or system male Wistar rats; details: compounds 10^−4 M in organ bath, phenylephrine 10^−6 M, n = 5
Protocol: (§1) Cervical disruption was used to eliminate male Wistar rats weighing 200 g and 300 g. The thoracic aorta segments (3 mm to 5 mm) were slightly pressed and […]. The tissues were placed in an organ bath filled with 10 mL of Krebs-Henseleit solution and kept at 37 °C. Then 95% oxygen and 5% carbon dioxide were passed through the above-mentioned solution. To record organ responses to phenylephrine, (10^−6 M) (Sigma, St. Louis, MO, USA) simulated contractions; isometric transducers and Gemini recorders (Ugo Basile, Varese, Italy) were assembled. Aortic rings were recon traced with phenylephrine (10^−6 M) and subjected to acetylcholine (10^−6 M) for recording endothelium-dependent relaxations (EDR). All synthesized compounds along with the standard (valsartan) were mixed in DMSO; whereas synthesized derivatives of concentration 10^−4 M were added in an organ bath. In conscious rats, systolic blood pressure was recorded by applying the tail-cuff method. Wistar rats of 200 g to 250 g weight were selected and divided into groups of five individuals. The chemicals were injected intraperitoneally at a dosage of 80 mg/kg body weight. The tail-cuff and a piezoelectric pulse sensor were coupled to a blood pressure analyzer and were positioned at the base of the tail (May 9610, Ankara, Turkey).
(§2) All results were presented as the mean of SEM. (n = 5) and test compounds were employed for statistical significance determination.

conscious rats = assay: Antihypertensive effect, systolic blood pressure by tail-cuff method in conscious rats; assay type: in vivo, Wistar rats; details: 80 mg/kg intraperitoneally, n = 5, Control 108.28 ± 6.87, DMSO 81.10 ± 3.21
Protocol: as §1, §2

urease = urease (Canavalia ensiformis, UniProt P07374); assay: biochemical; assay type: biochemical; details: for folds more urease inhibition than standard Thiourea: relative to Thiourea IC50
Protocol: The activity performed was an improved procedure of the Berthelot assay. […] For 5 min, the mixture was incubated at 37 °C. Each well in a 96-well plate received 40 µL of urea stock solution (20 mM); incubated for 10 min at 37 °C. Afterwards, 115 µL phenol hypochlorite (45 µL phenol + 70 µL alkali) per well was added. Furthermore, all the contents were incubated for 10 min at 37 °C. Absorbance at 625 nm was measured. Using the provided formula, the % of enzyme-inhibition and IC-50 values were computed Inhibition (%age) = [Control − test/100(control)] where Control = [Total enzyme activity minus inhibitor]. The test is the test compounds’ activity

Bacillus pumilus = assay: Antibacterial agar-well diffusion; assay type: cell-based; details: sample 100 mg/5 mL in DMSO; ceftriaxone sodium 20 mg/10 mL; 37 °C, 24 h; 6 mm wells
Protocol: (§3) After sterilizing the Mueller Hinton agar medium on plates in an autoclave and allowing it to cool to roughly 45 °C, a 100 µL standard inoculum was aseptically mixed, chilled till 37 °C, and 6 mm wells were formed in the inoculated plates. The volume of 100 μL (100 mg/5 mL in DMSO), ceftriaxone sodium (20 mg/10 mL in DMSO) as a positive control, and pure DMSO as a negative control; 30 μL of the sample solution was incorporated into these wells. These primed plates were incubated at 37 °C for 24 h prior to record inhibitory zones in millimeters.

Escherichia coli = assay: Antibacterial agar-well diffusion; assay type: cell-based; details: sample 100 mg/5 mL in DMSO; ceftriaxone sodium 20 mg/10 mL; 37 °C, 24 h; 6 mm wells
Protocol: as §3

Pseudomonas aeruginosa = assay: Antibacterial agar-well diffusion; assay type: cell-based; details: sample 100 mg/5 mL in DMSO; ceftriaxone sodium 20 mg/10 mL; 37 °C, 24 h; 6 mm wells
Protocol: as §3

Staphylococcus aureus = assay: Antibacterial agar-well diffusion; assay type: cell-based; details: sample 100 mg/5 mL in DMSO; ceftriaxone sodium 20 mg/10 mL; 37 °C, 24 h; 6 mm wells
Protocol: as §3

[2] = urease, pH 7.0, 37 °C, read-out: IC50 ± SEM

urease, sequence (P07374 whole entry, looked up): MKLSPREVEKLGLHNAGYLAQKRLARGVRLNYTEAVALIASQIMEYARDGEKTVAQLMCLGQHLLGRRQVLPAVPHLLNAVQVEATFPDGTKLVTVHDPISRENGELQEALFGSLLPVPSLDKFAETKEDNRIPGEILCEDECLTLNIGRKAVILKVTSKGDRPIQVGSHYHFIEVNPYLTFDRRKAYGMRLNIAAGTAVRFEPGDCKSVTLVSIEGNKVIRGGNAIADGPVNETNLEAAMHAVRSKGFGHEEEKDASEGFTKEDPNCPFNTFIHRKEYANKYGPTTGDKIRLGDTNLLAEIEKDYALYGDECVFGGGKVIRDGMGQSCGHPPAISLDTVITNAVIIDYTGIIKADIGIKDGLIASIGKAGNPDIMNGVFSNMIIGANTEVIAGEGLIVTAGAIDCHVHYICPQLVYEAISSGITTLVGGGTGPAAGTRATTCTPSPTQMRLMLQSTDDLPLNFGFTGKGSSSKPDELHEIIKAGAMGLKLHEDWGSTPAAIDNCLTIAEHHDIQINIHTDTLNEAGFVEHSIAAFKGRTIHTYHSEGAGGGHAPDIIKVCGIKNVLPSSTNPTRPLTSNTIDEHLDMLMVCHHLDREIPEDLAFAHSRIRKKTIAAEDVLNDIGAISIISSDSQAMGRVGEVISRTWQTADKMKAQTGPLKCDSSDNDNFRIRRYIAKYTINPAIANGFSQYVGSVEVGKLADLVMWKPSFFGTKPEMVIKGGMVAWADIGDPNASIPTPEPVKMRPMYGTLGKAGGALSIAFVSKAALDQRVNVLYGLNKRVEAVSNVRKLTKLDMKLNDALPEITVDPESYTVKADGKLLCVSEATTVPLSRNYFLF

Structure (SMILES): CCCCC(=O)N(Cc1ccc(-c2ccccc2-c2nn[nH]n2)cc1)C(C(=O)O)C(C)C (stereo not shown) [AV0, 2-(N-((2′-(2H-tetrazole-5-yl)-[1,1′-biphenyl]-4yl)-methyl)-pentanamido)-3-methyl butanoic acid, reference compound]
- %Age Inhibition ± SEM [1]: 64.6± 0.50%
- inhibition at 100 µM (thoracic aorta segments; Rattus norvegicus, read-out: %ge inh. of Phenylephrine Cont. (±SEM)): 65.3 ± 3.6%
- Mean of Systolic Blood Pressure ± SEM (conscious rats): 82.41 ± 4.32
- IC50 (urease): 3.21 ± 0.95 µM
- Zone of Inhibition Gram +ve Bacteria B.pumilus Mean ± SEM (Bacillus pumilus): 11.36 ± 0.49 millimeters
- Zone of Inhibition Gram -Ve Bacteria E. coli Mean ± SEM (Escherichia coli): 10.40 ± 0.69 millimeters
- Zone of Inhibition Gram -Ve Bacteria P. aeruginosa Mean ± SEM (Pseudomonas aeruginosa): 12.43 ± 0.67 millimeters
- Zone of Inhibition Gram +ve Bacteria S. aureus Mean ± SEM (Staphylococcus aureus): 12.13 ± 0.72 millimeters

Structure (SMILES): CCCCC(=O)N(Cc1ccc(-c2ccccc2-c2nn[nH]n2)cc1)C(C(=O)Oc1ccc2ccccc2c1)C(C)C (stereo not shown) [AV10, naphthalen-2-yl 2-(N-((2′-(2H-tetrazol-5-yl)-[1,1′-biphenyl]-4 yl)methyl)pentanamido)-3methyl butanoate]
- %Age Inhibition ± SEM [1]: 94.4 ± 0.52%
- %ge inh. of Phenylephrine Cont. (±SEM) (thoracic aorta segments): 69.8 ± 6.7%
- Mean of Systolic Blood Pressure ± SEM (conscious rats): 75.82 ± 4.12
- IC50 (urease; [2]): 2.05 ± 1.05 µM
- Zone of Inhibition Gram +ve Bacteria B.pumilus Mean ± SEM (Bacillus pumilus): 10.30 ± 0.21 millimeters
- Zone of Inhibition Gram -Ve Bacteria E. coli Mean ± SEM (Escherichia coli): 10.40 ± 0.56 millimeters
- Zone of Inhibition Gram -Ve Bacteria P. aeruginosa Mean ± SEM (Pseudomonas aeruginosa): 12.63 ± 0.63 millimeters
- Zone of Inhibition Gram +ve Bacteria S. aureus Mean ± SEM (Staphylococcus aureus): 12.13 ± 0.37 millimeters

Structure (SMILES): CCCCC(=O)N(Cc1ccc(-c2ccccc2-c2nn[nH]n2)cc1)C(C(=O)Oc1ccc(Cl)cc1Cl)C(C)C (stereo not shown) [AV5, 2,4-dichlorophenyl 2-(N-((2′-(2H-tetrazol-5yl)-[1,1′-biphenyl]-4 yl)methyl)pentanamido)-3methyl butanoate]
- %Age Inhibition ± SEM [1]: 73.1 ± 0.49%
- %ge inh. of Phenylephrine Cont. (±SEM) (thoracic aorta segments): 66.2 ± 4.2%
- Mean of Systolic Blood Pressure ± SEM (conscious rats): 81.92 ± 5.21
- folds more urease inhibition than standard Thiourea (urease): 3 folds
- IC50 (urease; [2]): 1.29 ± 0.12 µM
- Zone of Inhibition Gram +ve Bacteria B.pumilus Mean ± SEM (Bacillus pumilus): 11.23 ± 0.61 millimeters
- Zone of Inhibition Gram -Ve Bacteria E. coli Mean ± SEM (Escherichia coli): 11.36 ± 0.63 millimeters
- Zone of Inhibition Gram -Ve Bacteria P. aeruginosa Mean ± SEM (Pseudomonas aeruginosa): 09.36 ± 0.85 millimeters
- Zone of Inhibition Gram +ve Bacteria S. aureus Mean ± SEM (Staphylococcus aureus): 13.50 ± 0.50 millimeters

Structure (SMILES): CCCCC(=O)N(Cc1ccc(-c2ccccc2-c2nn[nH]n2)cc1)C(C(=O)OC(C(=O)c1ccccc1)c1ccccc1)C(C)C (stereo not shown) [AV1, 2-oxo-1,2-diphenylethyl 2-(N-((2′-(2H-tetrazol-5yl)-[1,1′-biphenyl]-4-yl)methyl)pentanamido)-3methyl butanoate]
- %Age Inhibition ± SEM [1]: 73.9 ± 0.49%
- %ge inh. of Phenylephrine Cont. (±SEM) (thoracic aorta segments): 67.3 ± 4.7%
- Mean of Systolic Blood Pressure ± SEM (conscious rats): 81.78 ± 3.87
- IC50 (urease; [2]): 2.56 ± 0.32 µM
- Zone of Inhibition Gram +ve Bacteria B.pumilus Mean ± SEM (Bacillus pumilus): 10.33 ± 0.40 millimeters
- Zone of Inhibition Gram -Ve Bacteria E. coli Mean ± SEM (Escherichia coli): 11.06 ± 0.55 millimeters
- Zone of Inhibition Gram -Ve Bacteria P. aeruginosa Mean ± SEM (Pseudomonas aeruginosa): 10.36 ± 0.28 millimeters
- Zone of Inhibition Gram +ve Bacteria S. aureus Mean ± SEM (Staphylococcus aureus): 10.83 ± 0.31 millimeters

Structure (SMILES): CCCCC(=O)N(Cc1ccc(-c2ccccc2-c2nn[nH]n2)cc1)C(C(=O)Oc1cc(C)ccc1C(C)C)C(C)C (stereo not shown) [AV8, 2-isopropyl-5-methylphenyl 2-(N-((2′-(2H-tetrazol-5yl)-[1, 1′-biphenyl]-4 yl)methyl)pentanamido)-3methyl butanoate]
- %Age Inhibition ± SEM [1]: 95.3 ± 0.55%
- %ge inh. of Phenylephrine Cont. (±SEM) (thoracic aorta segments): 71.6 ± 6.5%
- Mean of Systolic Blood Pressure ± SEM (conscious rats): 71.56 ± 4.32
- folds more urease inhibition than standard Thiourea (urease): 3 folds
- Zone of Inhibition Gram +ve Bacteria B.pumilus Mean ± SEM (Bacillus pumilus): 12.6 ± 0.60 millimeters
- Zone of Inhibition Gram -Ve Bacteria E. coli Mean ± SEM (Escherichia coli): 11.21 ± 0.41 millimeters
- Zone of Inhibition Gram -Ve Bacteria P. aeruginosa Mean ± SEM (Pseudomonas aeruginosa): 12.23 ± 0.27 millimeters
- Zone of Inhibition Gram +ve Bacteria S. aureus Mean ± SEM (Staphylococcus aureus): 12.66 ± 1.06 millimeters

Structure (SMILES): CCCCC(=O)N(Cc1ccc(-c2ccccc2-c2nn[nH]n2)cc1)C(C(=O)Oc1ccc(C=O)cc1)C(C)C (stereo not shown) [AV6, 4-formylphenyl2-(N-((2′-(2H-tetrazol-5-yl)-[1, 1′-biphenyl]-4yl)methyl)pentanamido)-3methyl butanoate]
- %Age Inhibition ± SEM [1]: 76.3 ± 0.46%
- %ge inh. of Phenylephrine Cont. (±SEM) (thoracic aorta segments): 67.4 ± 5.1%
- Mean of Systolic Blood Pressure ± SEM (conscious rats): 81.21 ± 3.21
- IC50 (urease; [2]): 2.13 ± 0.97 µM
- Zone of Inhibition Gram +ve Bacteria B.pumilus Mean ± SEM (Bacillus pumilus): 11.76 ± 1.06 millimeters
- Zone of Inhibition Gram -Ve Bacteria E. coli Mean ± SEM (Escherichia coli): 09.73 ± 0.44 millimeters
- Zone of Inhibition Gram -Ve Bacteria P. aeruginosa Mean ± SEM (Pseudomonas aeruginosa): 10.73 ± 0.28 millimeters
- Zone of Inhibition Gram +ve Bacteria S. aureus Mean ± SEM (Staphylococcus aureus): 12.86 ± 0.72 millimeters
